Several values for one entry are separate records, joined by “and”; a condition that tells them apart may be missing. Identical values can stand only once.
Tests used:
[1] = biological target: T1, PAT1 (murine slc26a6) (Mus musculus, UniProt Q8CIW6); assay: PAT1-mediated Cl-/I- exchange, YFP fluorescence quenching in FRT cells; format: cell-based
T1 construct: host or cells: Fischer rat thyroid (FRT) cells, lentiviral transduction (pLVX-IRES-mCherry-slc26a6), clonal line FRT-YFP-slc26a6
T1 sequence (Q8CIW6 24-758 limits assumed): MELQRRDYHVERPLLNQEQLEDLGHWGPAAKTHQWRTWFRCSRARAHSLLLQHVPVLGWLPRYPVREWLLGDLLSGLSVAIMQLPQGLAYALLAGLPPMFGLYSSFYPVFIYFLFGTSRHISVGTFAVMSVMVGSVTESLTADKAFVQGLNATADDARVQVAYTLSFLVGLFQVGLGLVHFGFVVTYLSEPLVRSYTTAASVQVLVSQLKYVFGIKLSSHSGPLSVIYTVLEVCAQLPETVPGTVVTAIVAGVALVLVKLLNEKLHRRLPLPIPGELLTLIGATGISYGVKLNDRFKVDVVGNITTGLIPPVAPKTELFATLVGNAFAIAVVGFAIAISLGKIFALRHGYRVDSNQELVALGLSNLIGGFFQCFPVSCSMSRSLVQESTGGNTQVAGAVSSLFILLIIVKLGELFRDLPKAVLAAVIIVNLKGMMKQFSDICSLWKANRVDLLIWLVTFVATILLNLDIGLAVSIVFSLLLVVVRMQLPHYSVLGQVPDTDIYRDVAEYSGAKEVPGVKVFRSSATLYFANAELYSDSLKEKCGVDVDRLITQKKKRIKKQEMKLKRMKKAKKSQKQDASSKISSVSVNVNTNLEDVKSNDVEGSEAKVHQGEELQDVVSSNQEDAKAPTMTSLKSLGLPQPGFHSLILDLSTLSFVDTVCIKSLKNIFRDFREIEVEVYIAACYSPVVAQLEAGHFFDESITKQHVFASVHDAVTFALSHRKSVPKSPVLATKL
Procedure: A small-molecule screen was developed to identify PAT1 inhibitors utilizing transfected FRT cells expressing PAT1 (murine slc26a6) together with a halide-sensing cytoplasmic YFP (Figure 1A). Adherent cells in a 96-well format were subjected to an inward gradient of I^– to drive exchange of I^– for Cl^– and consequent quenching of the YFP fluorescence signal.
A collection of approximately 50,000 diverse, drug-like synthetic small molecules (ChemDiv) was screened at a concentration of 25 μM using a Beckman Coulter BioMek FX liquid handling platform with FLUOstar OMEGA plate readers (BMG Labtech). FRT-YFP-slc26a6 cells were plated in 96-well black-walled, clear-bottom plates (Corning Life Sciences) at a density of 20,000 cells/well and cultured for 48 hours until confluent. Cells were washed twice in PBS and incubated for 10 minutes prior to assay in 100 μl PBS containing test compounds. For assay of slc26a6 function, baseline cellular fluorescence was measured for 2 seconds, after which 100 μl NaI-substituted PBS (140 mM NaCl replaced by 140 mM NaI) was added by syringe pump to drive Cl^–/I^– exchange. The initial rate of Cl^–/I^– exchange was determined by single exponential regression of the fluorescence time course. All assay plates contained wells with negative (1% DMSO) and positive (500 μM niflumic acid) controls. For structure-activity relationship studies, analogs of active compounds were purchased from ChemDiv.

[2] = tested on: ileal closed loops in cystic fibrosis (CF) mice (homozygous F508del); assay: Closed ileal loop fluid absorption in CF mice; format: in vivo, mouse; conditions: 30 μM luminal
Procedure: For fluid absorption studies in small intestine, mice were given free access to 5% dextrose in water but not solid food for 24 hours before experiments. Closed midjejunal and ileal loops were prepared and isolated as described previously ([29]). Mice were anesthetized with isoflurane, and body temperature was maintained during surgery at 36°C–38°C using a heating pad. A small abdominal incision was made to expose small intestine for isolation of 3–4 closed small intestinal loops (jejunum or ileum, length 2–3 cm) with sutures. Loops were injected with 100 μL PBS (pH 7.4, 137 mM NaCl, 2.7 mM KCl, 8 mM Na2HPO4, 1.8 mM KH2PO4, 1 mM CaCl2, 0.5 mM MgCl2) containing 30 μM PAT1inh-B01, 10 μM DRAinh-A270, or 10 μM tenapanor (MedChemExpress) (or vehicle, 0.1% DMSO in PBS). In some experiments, 30 μM PAT1inh-B01 and 10 μM DRAinh-A270 were used together. In some experiments to rule out effects of sodium-dependent phosphate transport, the loop lumen contained HEPES-buffered saline (pH 7.4, 137 mM NaCl, 4.5 mM KCl, 10 mM HEPES, 1 mM CaCl2, 0.5 mM MgCl2). The abdominal incision was closed with sutures, and mice were allowed to recover from anesthesia. Intestinal loops were removed at 0 and 30 minutes (in separate mice), and loop length and weight were measured to quantify fluid absorption. In parallel experiments, CF mice were used and loop studies were done as described above. In some experiments, loop fluid was emptied with a syringe, and pH was measured immediately using AB15 pH meter after brief centrifugation at 2000 g for 5 minutes at 4°C.

- time to 50% inhibition of PAT1-mediated Cl-/I- exchange ([1]; 1 μM): approximately 3 minutes
- IC50 ([1]; FRT cells expressing PAT1 and YFP, read-out: IC50, inhibition of PAT1-mediated Cl-/I- exchange): ~350 nM and 350 nM
- inhibition at 25 µM ([1]; FRT, 25 μM, primary screen): > 75%
- reversibility of inhibition following washout ([1]; data not shown): fully reversible
SMILES: Cc1c(Br)c(C(F)(F)F)nn1CC(=O)N1CCc2nc3cc(-c4ccccc4)[nH]n3c(=O)c2C1 [PAT1inh-B01]
- effect on fluid absorption from ilea of CF mice [2]: completely blocked

— publication PMC8262356, “SLC26A6-selective inhibitor identified in a small-molecule screen blocks fluid absorption in small intestine” (JCI Insight, 2021)
